Experiments:
blood = assay: Blood compatibility at 1 mg/ml; details: footnote [3] to protamine: showed complement activation, platelet activation, behaved like an anticoagulant, massive hemolysis
ctDNA = assay: Binding affinity of polymers for ctDNA; details: buffered water (pH 7.2), 50 mM NaCl, 25° C

For `NCCCNCCCCNCCCN` [Tetramine (spermine), spermine], which “Blood compatibility at 1 mg/ml” value (blood) is on record?
Its value is “poor”.

What about the “C50 (nM) [1]” value (ctDNA) of the same molecule?
Its value is 2788 nM.

From patent publication US10111902B2, “Polymers for reversing heparin-based anticoagulation” (University of British Columbia, priority 2011, dated 2018)
